# Molecular target: cGMP-dependent 3',5'-cyclic phosphodiesterase (Homo sapiens, UniProt O00408)
# Experiment: ChEBML_217498
# Experimental: Inhibition of human lung low-affinity cGMP phosphodiesterases (10-50 uM/L)
# Chain of cGMP-dependent 3',5'-cyclic phosphodiesterase (O00408 whole entry): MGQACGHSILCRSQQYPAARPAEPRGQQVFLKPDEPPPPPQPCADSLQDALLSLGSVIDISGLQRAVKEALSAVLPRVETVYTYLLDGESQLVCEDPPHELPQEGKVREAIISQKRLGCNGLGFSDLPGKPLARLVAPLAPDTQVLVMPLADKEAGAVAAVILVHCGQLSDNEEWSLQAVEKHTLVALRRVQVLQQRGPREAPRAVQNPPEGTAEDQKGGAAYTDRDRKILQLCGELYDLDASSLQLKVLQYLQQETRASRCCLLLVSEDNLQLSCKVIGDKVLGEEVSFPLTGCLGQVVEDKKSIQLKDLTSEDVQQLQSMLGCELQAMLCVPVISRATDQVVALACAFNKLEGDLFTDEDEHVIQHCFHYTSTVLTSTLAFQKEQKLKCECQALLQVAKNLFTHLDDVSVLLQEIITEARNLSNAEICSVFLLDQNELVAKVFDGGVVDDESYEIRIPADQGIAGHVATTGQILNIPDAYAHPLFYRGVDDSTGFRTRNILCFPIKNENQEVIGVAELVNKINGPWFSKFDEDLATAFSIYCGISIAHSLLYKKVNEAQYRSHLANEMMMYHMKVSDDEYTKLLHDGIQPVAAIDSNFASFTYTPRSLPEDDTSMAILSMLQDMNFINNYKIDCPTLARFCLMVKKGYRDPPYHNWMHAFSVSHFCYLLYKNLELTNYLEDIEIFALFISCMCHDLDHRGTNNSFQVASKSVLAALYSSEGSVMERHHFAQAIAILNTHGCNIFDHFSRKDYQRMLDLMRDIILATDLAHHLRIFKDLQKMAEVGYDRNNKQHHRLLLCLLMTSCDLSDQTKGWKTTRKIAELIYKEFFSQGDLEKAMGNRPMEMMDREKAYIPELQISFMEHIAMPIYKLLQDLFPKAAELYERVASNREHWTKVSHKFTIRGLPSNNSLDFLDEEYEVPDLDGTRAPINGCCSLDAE
row,Ki,SMILES
1,600 µM,"CC(O)Cn1cnc2c1c(=O)n(C)c(=O)n2C (stereo unspecified) [7-(2-Hydroxy-propyl)-1,3-dimethyl-3,7-dihydro-purine-2,6-dione(Proxyphylline)]"
2,600 µM,"C[C@@H](O)Cn1cnc2c1c(=O)n(C)c(=O)n2C [(R)-7-(2-hydroxypropyl)-1,3-dimethyl-1H-purine-2,6(3H,7H)-dione]"
3,700 µM,"C[C@H](O)Cn1cnc2c1c(=O)n(C)c(=O)n2C [(S)-7-(2-hydroxypropyl)-1,3-dimethyl-1H-purine-2,6(3H,7H)-dione]"

# Molecular target: cGMP-specific 3',5'-cyclic phosphodiesterase (Homo sapiens, UniProt O76074)
# Experiment: ChEBML_217497
# Experimental: Inhibition of human lung high-affinity cGMP phosphodiesterases (0.5-2 uM/L)
row,Ki,SMILES
1,600 µM,"CC(O)Cn1cnc2c1c(=O)n(C)c(=O)n2C (stereo unspecified) [7-(2-Hydroxy-propyl)-1,3-dimethyl-3,7-dihydro-purine-2,6-dione(Proxyphylline)]"
2,600 µM,"C[C@@H](O)Cn1cnc2c1c(=O)n(C)c(=O)n2C [(R)-7-(2-hydroxypropyl)-1,3-dimethyl-1H-purine-2,6(3H,7H)-dione]"
3,600 µM,"C[C@H](O)Cn1cnc2c1c(=O)n(C)c(=O)n2C [(S)-7-(2-hydroxypropyl)-1,3-dimethyl-1H-purine-2,6(3H,7H)-dione]"
